# Target: T1, human FSH receptor (Homo sapiens, UniProt P23945)
# T1 construct: expressed in transfected cells; host or cells: CHO cells, stably transfected; cotransfected with CRE-luciferase reporter
# T1 sequence (P23945 18-695): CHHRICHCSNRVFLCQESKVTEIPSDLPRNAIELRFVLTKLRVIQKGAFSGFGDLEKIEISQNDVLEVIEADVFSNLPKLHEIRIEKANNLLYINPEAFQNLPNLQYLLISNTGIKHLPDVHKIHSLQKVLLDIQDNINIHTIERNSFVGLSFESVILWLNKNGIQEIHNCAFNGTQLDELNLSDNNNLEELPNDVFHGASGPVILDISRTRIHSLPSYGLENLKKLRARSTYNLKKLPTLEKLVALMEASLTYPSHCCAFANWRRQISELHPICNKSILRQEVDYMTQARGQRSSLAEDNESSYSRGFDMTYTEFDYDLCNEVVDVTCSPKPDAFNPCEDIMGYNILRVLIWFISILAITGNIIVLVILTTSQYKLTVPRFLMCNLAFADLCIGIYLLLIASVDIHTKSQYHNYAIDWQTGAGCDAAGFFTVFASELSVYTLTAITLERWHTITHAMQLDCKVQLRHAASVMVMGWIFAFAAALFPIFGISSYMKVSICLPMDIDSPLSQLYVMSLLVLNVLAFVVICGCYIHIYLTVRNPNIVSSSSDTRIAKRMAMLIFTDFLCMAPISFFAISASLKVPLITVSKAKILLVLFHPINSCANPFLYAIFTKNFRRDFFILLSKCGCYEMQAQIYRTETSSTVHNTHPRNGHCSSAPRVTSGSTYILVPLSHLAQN
# Assay: Antagonistic activity of compounds at the human FSH receptor expressed in CHO cells (CRE-luciferase reporter)
# Assay type: cell-based
# Conditions: CHO cells stably transfected with human FSH receptor and CRE/luciferase reporter; together with 49 μM recFSH; 4 hours incubation; 1% DMSO; read-out: IC50 (concentration of test compound causing half-maximal inhibition of the maximally attainable inhibition of the luciferase stimulation)
# In short: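 Stably transfected CHO cells with a CRE-driven firefly luciferase reporter were co-incubated 4 h at 37 °C with compound (0.316 nM–10.0 μM, duplicate) plus […] recFSH (80% maximal stimulation), 1% DMSO final. Luminescence read after lysis; IC50 and efficacy from inhibition of FSH-induced luciferase signal.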
row,SMILES,IC50 [nM]
1,"COc1cc2c(cc1OC)-c1nc(C(=O)N[C@@H](CO)Cc3c[nH]c4ccccc34)c(-c3ccccc3OC)n1CC2 [Example 68, N—((R)-1-hydroxy-3-(1H-indol-3-yl)propan-2-yl)-8,9-dimethoxy-3-(2-methoxyphenyl)-5,6-dihydroimidazo[2,1-a]isoquinoline-2-carboxamide]",100 to 1000
2,COc1cc2c(cc1OC(C)C)-c1cc(C(=O)NC(C)(CO)Cc3c[nH]c4ccccc34)c(-c3cccc(F)c3)n1CC2 (centres unmarked) [Example 2],100 to 1000
